This is an account of results in patent US8399457B2, “Pharmaceutical compounds” (Neuroscienze Pharmaness S.C. A.R.L., priority 2008, dated 2013).

For data set [1], the system named is response to the pain in mice. In words: Hot Plate test (analgesic effect). (In hot-plate and tail-flick tests a longer latency is read as antinociception.)
Data set [2] has as its system response to the pain in mice. The data set can be described thus: Tail Flick test (analgesic effect).
Where [3] appears, read: 10 mg/kg i.p., 30 min, formula (I) compounds as formates.
[4] abbreviates: 10 mg/kg i.p., 60 min, formula (I) compounds as formates.
The mark [5] stands for this setting: 10 mg/kg i.p., 120 min, formula (I) compounds as formates.
The mark [6] stands for this setting: 10 mg/kg i.p., 240 min, formula (I) compounds as formates.
The mark [7] stands for this setting: 10 mg/kg i.p., 360 min, formula (I) compounds as formates.
Where [8] appears, read: 20 mg/kg i.p., 30 min, as formates.
Where [9] appears, read: 20 mg/kg i.p., 60 min, as formates.
Setting [10] is: 20 mg/kg i.p., 120 min, as formates.
[11] abbreviates: 20 mg/kg i.p., 240 min, as formates.
[12] abbreviates: 20 mg/kg i.p., 360 min, as formates.

Broadly, the melting point is the temperature of the solid-liquid transition. `CCC(=O)N1C2CCCC1CN(C/C=C(\C)c1ccccc1)CC2` (stereo not shown) [I-Da] showed a melting point of 144 to 146 °C.

For `CCC(=O)N1C2CCCC1CN(CC=C(c1ccccc1)c1ccccc1)CC2` (stereo not shown) [I-Dc], the melting point is 169 to 170 °C.

With `CCC(=O)N1CCC2CCC(C1)N2C/C=C(\C)c1ccc(Cl)c(Cl)c1` (stereo not shown) [I-Ab], the melting point was in the range of 188 to 189 °C.

Consider `CCC(=O)N1C2CCC1CN(C/C=C(\C)c1ccc(Cl)c(Cl)c1)CC2` (stereo not shown) [I-Bb], for which the melting point was 186 to 188 °C.

Take `CCC(=O)N1CCC2CCC(C1)N2C/C=C(\C)c1ccccc1` (stereo not shown) [I-Aa]: the melting point lay in the range of 230 to 232 °C. For the same molecule, the MPE % in data set [1] (setting [3]) is recorded as 49.5 ± 10.5%. For the same molecule, in data set [1] (setting [4]), the MPE % is 25.1 ± 6.1%. Also, the MPE % in data set [1] (setting [5]) is 6.0 ± 3.0%. For the same molecule, the MPE % in data set [1] (setting [6]) amounted to 3.2 ± 3.0%. In data set [1] (setting [7]), the MPE % came out at 4.1 ± 1.0%. For the same molecule, in data set [2] (setting [3]), the MPE % is 65.5 ± 6.5%. Further, the MPE % in data set [2] (setting [4]) stood at 20.1 ± 4.1%. Moreover, the MPE % in data set [2] (setting [5]) is reported as 10.0 ± 1.0%. Moreover, the MPE % in data set [2] (setting [6]) is recorded as 3.1 ± 2.0%. In addition, in data set [2] (setting [7]), the MPE % is on record as −3.0 ± 0.5%.

Take `CCC(=O)N1CCC2CCCC(C1)N2C/C=C(\C)c1ccc(Cl)c(Cl)c1` (stereo not shown) [I-Cb]: the melting point was in the range of 184 to 185 °C.

Take `CCC(=O)N1C2CCC1CN(CC=C(c1ccccc1)c1ccccc1)CC2` (stereo not shown) [I-Bd]: the melting point fell in the range of 184 to 186 °C.

On to `CCC(=O)N1CCC2CCC(C1)N2CC=C(c1ccccc1)c1ccccc1` (stereo not shown) [I-Ad], for which the melting point was 176 to 177 °C.

On to `CN1CC[C@]23c4c5ccc(O)c4O[C@H]2[C@@H](O)C=C[C@H]3[C@H]1C5` [Morphine, reference compound], for which the MPE % in data set [2] (setting [4]) is 60.5 ± 6.8%; in data set [2] (setting [5]), 39.6 ± 4.0%; in data set [2] (setting [6]) it was 19.1 ± 3.0%; in data set [2] (setting [7]), 6.1 ± 1.1%.

`CCC(=O)N1C2CCC1CN(C/C=C(\C)c1ccccc1)CC2` (stereo not shown) [I-Ba] returned a melting point of 228 to 230 °C. Moreover, in data set [1] (setting [8]), the MPE % was determined as 68.9 ± 7.2%. In data set [1] (setting [9]), the MPE % was 50.5 ± 11.3%. Further, the MPE % in data set [1] (setting [10]) amounted to 7.0 ± 2.1%. Further, the MPE % in data set [1] (setting [11]) worked out at 6.0 ± 2.1%. Further, in data set [1] (setting [12]), the MPE % is on record as −4.0 ± 2.0%. Also, in data set [2] (setting [8]), the MPE % is reported as 89.9 ± 7.0%. Also, in data set [2] (setting [9]), the MPE % worked out at 88.5 ± 10.3%. The MPE % in data set [2] (setting [10]) was found to be 9.0 ± 2.5%. For the same molecule, in data set [2] (setting [11]), the MPE % worked out at 2.0 ± 1.1%. The MPE % in data set [2] (setting [12]) is reported as −2.0 ± 1.0%.

In turn, `CCC(=O)N1CCC2CCCC(C1)N2CC=C(c1ccccc1)c1ccccc1` (stereo not shown) [I-Cc] registered a melting point of 137 to 139 °C. Also, the MPE % in data set [1] (setting [8]) was determined as 55.2 ± 10.5%. The MPE % in data set [1] (setting [9]) was 40.9 ± 7.8%. The MPE % in data set [1] (setting [10]) is recorded as 24.1 ± 7.3%. The MPE % in data set [1] (setting [11]) was 5.0 ± 4.0%. Besides, in data set [1] (setting [12]), the MPE % came to 0.1 ± 1.1%. In addition, the MPE % in data set [2] (setting [8]) is 80.2 ± 7.5%. Also, the MPE % in data set [2] (setting [9]) was determined as 52.9 ± 8.1%. The MPE % in data set [2] (setting [10]) was found to be 42.1 ± 8.3%. Also, the MPE % in data set [2] (setting [11]) was 14.6 ± 3.0%. The MPE % in data set [2] (setting [12]) turned out to be 0.0 ± 0.8%.

`CCC(=O)N1CCC2CCCC(C1)N2C/C=C(\C)c1ccccc1` (stereo not shown) [I-Ca] showed a melting point of 106 to 108 °C.

As to `CCC(=O)N1C2CCCC1CN(C/C=C(\C)c1ccc(Cl)c(Cl)c1)CC2` (stereo not shown) [I-Db], the melting point was 175 to 176 °C.
